Measured values: patent publication US11234436B2, “Method for controlling non-crop pests” (BASF Agrochemical Products B.V., priority 2015, dated 2022)

Tested on: German Cockroach (Blattella germanica)
Assay: Test 1: activity against German cockroach, treated glass vial contact, mortality
Format: in vivo
Settings: alone, 1 h exposure in treated vial
Experimental: Test 1. Activity Against German Cockroach (Blattella germanica)
Glass vials were treated with 445 μl of varying concentrations of the technical grade active ingredient dissolved in acetone. Vials were turned on their sides and placed on an automated roller table. The vials were rolled (6 rpm) uncapped to allow an even coating of the treatment. Each treatment was replicated five times.
Prior to infestation, cockroaches were incapacitated using carbon dioxide (CO2). Approximately 6 insects were transferred with featherweight, broad tip forceps into treated vials, and held in an environmental chamber at 27° C. and 80% relative humidity for one hour. Following this exposure period, a small amount of CO2 was used to incapacitate the insects facilitating removal from treated vials. Insects were then transferred to 16 oz plastic holding containers provisioned with a small piece of dry cat food and a cotton wick moistened with water, and returned to the environmental chamber. Mortality was assessed at 1, 2, and 3 days after exposure (DAE).

CC1(C)C(C=C(Cl)Cl)C1C(=O)OC(C#N)c1cccc(Oc2ccccc2)c1 (stereo not drawn) [Alphacypermethrin, alpha-cypermethrin]
Average Control % (Test Mixture 1.4, 1.96 ppm): 0%

CCOCn1c(-c2ccc(Cl)cc2)c(C#N)c(Br)c1C(F)(F)F [Chlorfenapyr, chlorfenapyr]
Average Control % (Test Mixture 1.3, 100 ppm): 3.3%

CN(C(=O)c1ccccc1)c1cccc(C(=O)Nc2c(Br)cc(C(F)(C(F)(F)F)C(F)(F)F)cc2C(F)(F)F)c1F [Compound i) of formula (I), broflanilide]
Average Control % (Mixture 1.1, 9.2 ppm): 10% | Average Control % (Test Mixture 1.2, 10 ppm): 10% | Average Control % (Test Mixture 1.3, 9.5 ppm): 26.7% | Average Control % (Test Mixture 1.4, 9.5 ppm): 46.7%

CN/C(=N/CC1CCOC1)N[N+](=O)[O-] (centres unmarked) [Dinotefuran, dinotefuran]
Average Control % (Mixture 1.1, 2.6 ppm): 16.7% | Average Control % (Test Mixture 1.2, 4.1 ppm): 30%
